Experimental data published in US20080176857A1, “4-Piperazinnylthieno[2,3-d]Pyrimidine Compounds as Platelet Aggregation Inhibitors” (priority 2005, published 2008).
Where “and” joins values, the source holds several entries; their conditions need not be identical. Equal entries are not always repeated.

Target: P2Y12 receptor (Homo sapiens, UniProt Q9H244)
Test: [33P]-2MeS-ADP binding to recombinant human P2Y12 membranes (Assay 3)
Parameters: expressed in transfected cells; host or cells: HEK cells
Settings: for IC50 / Ki: HEK cell membranes expressing human P2Y12, competition with 33P 2MeS-ADP
Method: 3. Human P2Y12 Recombinant Cell Membrane Binding Assay with ^33P 2MeS-ADP.
The ability of a test compound to bind to the P2Y12 receptor was evaluated in a recombinant cell membrane binding assay. In this competitive binding assay, the test compound competed against a radiolabelled agonist for binding to the P2Y12 receptor, expressed on the cell membrane. Inhibition of binding of the labeled material was measured and correlated to the amount and potency of the test compound. Data from this assay are presented in Table F. This binding assay is a modification of the procedure in Takasaki, J. et. al, Mol. Pharmacol., 2001, Vol. 60, pg. 432.
HEK cells were transfected with the pDONR201P2Y12 vector and cultured in MEM with GlutaMAX I, Earle's salts, 25 mM HEPES (Gibco # 42360-032) containing 10% dialyzed FBS (Gibco # 26400-044), 100 μM nonessential amino acids (Gibco # 11140-050), 1 mM sodium pyruvate (Gibco # 11360-070), 0.05% geneticin (Gibco #10131-027), 3 μg/mL blasticidin (Fluka brand from Sigma # 15205), and 0.5 μg/mL puromycin (Sigma # P-8833).
Confluent cells were washed once with cold DPBS (Gibco # 14190-136). Fresh DPBS was added and the cells were scraped and centrifuged at 500×g for 5 minutes at 4° C. The cell pellets were resuspended in TEE buffer (25 mM Tris, 5 mM EDTA, 5 mM EGTA) containing 1 protease inhibitor cocktail tablet (Roche # 1 873 580) per 50 mL (called TEE+Complete) and can be flash frozen at this point.
In one embodiment, frozen cell pellets were used to prepare the membranes. In that embodiment, the frozen cell pellets were thawed on ice. In another embodiment, cell pellets may be used without flash freezing before moving on to the next step.
Cell pellets were resuspended in TEE buffer+Complete and homogenized in a glass dounce for 12 strokes. The cell suspension was centrifuged at 500×g for 5 minutes at 4° C. The supernatant was saved and centrifuged at 20,000×g for 20 minutes at 4° C. This supernatant was discarded and the cell pellet resuspended in TEE buffer+Complete and homogenized in a glass dounce for 12 strokes. This suspension was centrifuged at 20,000×g for 20 minutes at 4° C. and the supernatant discarded. The pellet was resuspended in assay buffer (50 mM Tris, 100 mM NaCl, 1 mM EDTA) containing one protease inhibitor cocktail tablet per 50 mL, and can be flash frozen as 1 mL aliquots at this point.
Dry compounds were diluted as 10 mM DMSO stocks and tested in a seven-point, three-fold dilution series run in triplicate beginning at 10 μM, final concentration. A 1 mM DMSO intermediate stock was made in a dilution plate and from this the seven dilutions were made to 5× the final concentration in assay buffer containing 0.02% BSA.
The plates were incubated at room temperature for 1 hour. The reaction was stopped using a cell harvester to transfer the reaction mixture onto GF/B UniFilter plates (Perkin Elmer # 6005177), and washed three times with wash buffer (50 mM Tris), filtering between each wash. The filter plates were dried for approximately 20 minutes in an oven at 50° C. Back seals were adhered to the filter plates and 25 uL of Microscint 20 scintillation fluid (Perkin Elmer # 6013621) were added. The filter plates were sealed, shaken for 30 minutes, and counted on a Top Count. Data were analyzed using a four-parameter curve fit with a fixed minimum and maximum experimentally defined as the average positive and negative controls on each plate, and with a hill slope equal to one.
The table below presents the IC50, Ki, and percent inhibition values for compounds tested in either washed human platelets membrane binding assay (assay #1 above) or recombinant cell membrane binding assay (Assay #3, above). Example number refers to the compound prepared as described in the example noted in the section Working Examples, above. The highest concentration of candidate compound tested is listed for each experimental run presented. […]

[1] = at highest concentration tested, 10 μM

P2Y12 receptor, sequence (Q9H244 whole entry): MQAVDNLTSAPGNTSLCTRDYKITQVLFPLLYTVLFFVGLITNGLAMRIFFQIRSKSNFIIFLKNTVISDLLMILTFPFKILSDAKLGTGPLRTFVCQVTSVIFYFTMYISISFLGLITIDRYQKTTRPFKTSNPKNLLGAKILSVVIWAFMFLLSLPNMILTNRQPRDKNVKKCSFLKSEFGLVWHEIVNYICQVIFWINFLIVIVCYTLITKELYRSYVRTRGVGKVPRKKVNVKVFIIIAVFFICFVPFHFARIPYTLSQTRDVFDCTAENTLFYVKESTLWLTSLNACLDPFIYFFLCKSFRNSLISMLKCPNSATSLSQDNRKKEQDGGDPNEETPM

SMILES | IC50 | Ki | inhibition at 10 µM [1] [%] | % Inhibition [1]
CCc1cc2c(N3CCN(C(=O)c4ccccc4)CC3)nc(SCC(=O)OC)nc2s1 [Example 56, Methyl {[4-(4-benzoylpiperazin-1-yl)-6-ethylthieno[2,3-d]pyrimidin-2-yl]thio}acetate] | 3040 nM | 1520 nM | 64.1 | –
CCOc1ccc(C(=O)N2CCN(c3nc(SCC(=O)OC)nc4sc(CC)cc34)CC2)cc1 [Example 57, Methyl ({4-[4-(4-ethoxybenzoyl)piperazin-1-yl]-6-ethylthieno[2,3-d]pyrimidin-2-yl}thio)acetate] | 1050 nM | 524 nM | 80.8 | –
CCc1cc2c(N3CCN(C(=O)CCOC)CC3)nc(SCC(=O)OC)nc2s1 [Example 58, Methyl ({6-ethyl-4-[4-(3-methoxypropanoyl)piperazin-1-yl]thieno[2,3-d]pyrimidin-2-yl}thio)acetate] | 5250 nM | 2620 nM | 53.6 | –
CCc1cc2c(N3CCN(C(=O)c4ccc(OC)cc4)CC3)nc(SCC(=O)OC)nc2s1 [Example 59, Methyl ({6-ethyl-4-[4-(4-methoxybenzoyl)piperazin-1-yl]thieno[2,3-d]pyrimidin-2-yl}thio)acetate] | 2970 nM | 1480 nM | 67.1 | –
CCc1cc2c(N3CCN(C(=O)c4cccc(C(F)(F)F)c4)CC3)nc(SCC(=O)OC)nc2s1 [Example 60, Methyl [(6-ethyl-4-{4-[3-(trifluoromethyl)benzoyl]piperazin-1-yl}thieno[2,3-d]pyrimidin-2-yl)thio]acetate] | 4870 nM | 3160 nM | 60.8 | –
CCc1cc2c(N3CCN(C(=O)c4cccc(C)c4)CC3)nc(SCC(=O)OC)nc2s1 [Example 61, Methyl ({6-ethyl-4-[4-(3-methylbenzoyl)piperazin-1-yl]thieno[2,3-d]pyrimidin-2-yl}thio)acetate] | 1910 nM | 1240 nM | 78.5 | –
CCc1cc2c(N3CCN(C(=O)c4ccc5[nH]ccc5c4)CC3)nc(SCC(=O)OC)nc2s1 [Example 62, Methyl ({6-ethyl-4-[4-(1H-indol-5-ylcarbonyl)piperazin-1-yl]thieno[2,3-d]pyrimidin-2-yl}thio)acetate] | 5860 nM | 3530 nM | 50.9 | –
CCc1cc2c(N3CCN(C(=O)c4ccc5cc[nH]c5c4)CC3)nc(SCC(=O)OC)nc2s1 [Example 63, Methyl ({6-ethyl-4-[4-(1H-indol-6-ylcarbonyl)piperazin-1-yl]thieno[2,3-d]pyrimidin-2-yl}thio)acetate] | 1880 nM | 1130 nM | 68.1 | –
CCCCOc1ccc(C(=O)N2CCN(c3nc(SCC(=O)OC)nc4sc(CC)cc34)CC2)cc1 [Example 73, Methyl ({4-[4-(4-butoxybenzoyl)piperazin-1-yl]-6-ethylthieno[2,3-d]pyrimidin-2-yl}thio)acetate] | 371 nM | 230 nM | 82 | –

Further lines, results first:

IC50 | Ki | inhibition at 10 µM [1] [%] | % Inhibition [1] | SMILES
157 nM and 417 nM and 330 nM | 94 nM and 252 nM and 212 nM | 91.3 | 81.22% and 90.29% | CCc1cc2c(N3CCN(C(=O)c4cccc(C#N)c4)CC3)nc(SCC(=O)OC)nc2s1 [Example 64, Methyl ({4-[4-(3-cyanobenzoyl)piperazin-1-yl]-6-ethylthieno[2,3-d]pyrimidin-2-yl}thio)acetate]
620 nM | 370 nM | 81 | – | CCc1cc2c(N3CCN(C(=O)c4ccc5ccoc5c4)CC3)nc(SCC(=O)OC)nc2s1 [Example 65, Methyl ({4-[4-(1-benzofuran-6-ylcarbonyl)piperazin-1-yl]-6-ethylthieno[2,3-d]pyrimidin-2-yl}thio)acetate]
450 nM | 270 nM | 74.6 | – | CCc1cc2c(N3CCN(C(=O)c4ccc(-c5csnn5)cc4)CC3)nc(SCC(=O)OC)nc2s1 [Example 66, Methyl [(6-ethyl-4-{4-[4-(1,2,3-thiadiazol-4-yl)benzoyl]piperazin-1-yl}thieno[2,3-d]pyrimidin-2-yl)thio]acetate]
1230 nM | 740 nM | 79.7 | – | CCc1cc2c(N3CCN(C(=O)c4ccc5c(c4)OCC5)CC3)nc(SCC(=O)OC)nc2s1 [Example 67, Methyl ({4-[4-(2,3-dihydro-1-benzofuran-6-ylcarbonyl)piperazin-1-yl]-6-ethylthieno[2,3-d]pyrimidin-2-yl}thio)acetate]
6420 nM | 3880 nM | 96.4 | – | CCc1cc2c(N3CCN(C(=O)c4c(-c5ccc(OC)cc5)noc4C)CC3)nc(SCC(=O)OC)nc2s1 [Example 68, Methyl {[6-ethyl-4-(4-{[3-(4-methoxyphenyl)-5-methylisoxazol-4-yl]carbonyl}piperazin-1-yl)thieno[2,3-d]pyrimidin-2-yl]thio}acetate]
87.8 nM | 53 nM | 56.8 | – | CCc1cc2c(N3CCN(C(=O)c4csc(-c5ccccc5)n4)CC3)nc(SCC(=O)OC)nc2s1 [Example 69, Methyl [(6-ethyl-4-{4-[(2-phenyl-1,3-thiazol-4-yl)carbonyl]piperazin-1-yl}thieno[2,3-d]pyrimidin-2-yl)thio]acetate]
144 nM | 89 nM | 82.1 | – | CCc1cc2c(N3CCN(C(=O)c4nnc(-c5ccccc5)o4)CC3)nc(SCC(=O)OC)nc2s1 [Example 70, Methyl [(6-ethyl-4-{4-[(5-phenyl-1,3,4-oxadiazol-2-yl)carbonyl]piperazin-1-yl}thieno[2,3-d]pyrimidin-2-yl)thio]acetate]
289 nM | 179 nM | 89.3 | – | CCCOc1ccc(C(=O)N2CCN(c3nc(SCC(=O)OC)nc4sc(CC)cc34)CC2)cc1 [Example 71, Methyl ({6-ethyl-4-[4-(4-propoxybenzoyl)piperazin-1-yl]thieno[2,3-d]pyrimidin-2-yl}thio)acetate]
681 nM | 423 nM | 88.7 | – | CCc1cc2c(N3CCN(C(=O)c4cc(N(C)C)nc(N(C)C)n4)CC3)nc(SCC(=O)OC)nc2s1 [Example 72, Methyl {[4-(4-{[2,6-bis(dimethylamino)pyrimidin-4-yl]carbonyl}piperazin-1-yl)-6-ethylthieno[2,3-d]pyrimidin-2-yl]thio}acetate]
5740 nM | 3690 nM | 59 | – | CCc1cc2c(N3CCN(C(=O)c4cccc(N(C)C)c4)CC3)nc(SCC(=O)OC)nc2s1 [Example 74, Methyl [(4-{4-[3-(dimethylamino)benzoyl]piperazin-1-yl}-6-ethylthieno[2,3-d]pyrimidin-2-yl)thio]acetate]
3500 nM | 2250 nM | 70.5 | – | CCc1cc2c(N3CCN(C(=O)c4cccc(OC)c4)CC3)nc(SCC(=O)OC)nc2s1 [Example 75, Methyl ({6-ethyl-4-[4-(3-methoxybenzoyl)piperazin-1-yl]thieno[2,3-d]pyrimidin-2-yl}thio)acetate]
1170 nM | 730 nM | 75.9 | – | CCOc1cccc(C(=O)N2CCN(c3nc(SCC(=O)OC)nc4sc(CC)cc34)CC2)c1 [Example 76, Methyl ({4-[4-(3-ethoxybenzoyl)piperazin-1-yl]-6-ethylthieno[2,3-d]pyrimidin-2-yl}thio)acetate]
4850 nM | 2810 nM | 63.4 | – | CCc1cc2c(N3CCN(C(=O)c4ccc5nccnc5c4)CC3)nc(SCC(=O)OC)nc2s1 [Example 77, Methyl ({6-ethyl-4-[4-(quinoxalin-6-ylcarbonyl)piperazin-1-yl]thieno[2,3-d]pyrimidin-2-yl}thio)acetate]
